Laboratory results as given in patent publication US12448372B2, “Class of triaromatic compounds targeting bifunctional phosphorylation site of STAT3 and applications thereof” (SHANGHAI YUYAO BIOTECH LTD., priority 2019, dated 2025).
Where two headings read alike, the source gives them in different places.

Tests used:
HCC827 = experiment: Cell proliferation by MTS method, HCC827; type: cell-based; settings: Homo sapiens; Table 1, HCC827; read-out: Tumour cell proliferative activity/IC50(nM) Lung Cancer HCC827
Excerpt: (§1) (2) Detection of Cell Proliferation by MTS Method
(§2) The MTS assay is a method for indirectly determining the number of living cells via colourimetric method. MTS is a newly synthesised tetrazole compound that reflects cell viability, which can be reduced by succinate dehydrogenase in the mitochondria of living cells to an orange-coloured formazan with an absorbance of the reduced product measured at 490 nm being in proportion to the number of living cells, thus reflecting the cell viability. This assay can be used to evaluate the effect of the compound on the proliferation of pancreatic cancer cells, thereby determining the inhibitory effect of the compound on the proliferation of pancreatic cancer cells and to calculate the IC^50. Each cells were inoculated uniformly into a 96-well plate at a density of 1-20×10^3 cells/well, 100 μL per well, and placed in a constant temperature incubator until the cells adhered to the wall. The control group was added with the corresponding medium and the experimental groups were given different concentrations of the compound prepared by the examples of the present invention, and the cells were taken out 24-96 h after administration for observing the cell state under a microscope. Under light-proof conditions, MTS was added and well mixed, the mixture was placed in a constant temperature incubator at 37° C., and the light absorption value were measured using an enzyme marker at 490 nm and the experiment was repeated for three times, IC50 was calculated with GraphPad5 Prism software.

Huh7 = experiment: Cell proliferation by MTS method, Huh7; type: cell-based; settings: Homo sapiens, Huh-7; Table 1, Huh7; read-out: Tumour cell proliferative activity/IC50(nM) Liver Cancer Huh7
Excerpt: as §1, §2

STAT3 protein = STAT3 protein (Homo sapiens, UniProt P40763); experiment: Binding activity to STAT3 protein by microscale thermophoresis (MST); settings: purified STAT3 recombinant protein
Excerpt: (1) Determination of Binding Activities of Compounds to STAT3 Protein by Microscale Thermophoresis (MST) Method
(§3) The microscale thermophoresis (MST) technique is a simple, rapid, and accurate method for quantifying biomolecular interactions. It can measure the movement of molecules in a microscopic temperature gradient field, as well as detect changes of molecular hydration shell, charge and size. When the Nanotemper microscale thermophoresis instrument locally heated by a infrared laser, molecules will move in a directional manner, then the molecular distribution ratio in the temperature gradient field are analyzed by a fluorescence to detect whether a small molecule compound binds to a target protein. The experimental operation is as follows: firstly, compounds to be tested are diluted in a gradient using MST test buffer, total 16 concentrations being configured; subsequently, the purified STAT3 recombinant protein is labeled using the HIS tag labeling kit, and the final concentration of the labeled protein is 100-200 nM; the labeled STAT3 proteins are well mixed with the diluted compounds and incubated and protected from light for 30 minutes; finally the samples were loaded by capillary tube and detected on the instrument. The binding constants (K^D) of small molecules to STAT3 protein were analyzed by Mo. analysis software.

Capan-2 = experiment: Cell proliferation by MTS method, Capan-2; type: cell-based
Excerpt: as §1, §2

MKN45 = experiment: Cell proliferation by MTS method, MKN45; type: cell-based; settings: Homo sapiens, MKN-45; Table 1, MKN45; read-out: Tumour cell proliferative activity/IC50(nM) gastric Cancer MKN45
Excerpt: as §1, §2

[1] = dose of 25 mg/kg, cited from earlier work
STAT3 SH2 domain = STAT3 SH2 domain (Homo sapiens, UniProt P40763); experiment: Microscale thermophoresis binding to STAT3 SH2 domain; settings: MST, FIG. 5A; read-out: affinity for the STAT3 SH2 domain
Excerpt: as §3
(1) Microscale Thermophoresis Experiment
The method is as described in Example 40.

[2] = Homo sapiens, Table 1, Capan-2, read-out: Tumour cell proliferative activity/IC50(nM) Pancreatic Cancer Capan-2

Sequence of STAT3 protein (P40763 whole entry): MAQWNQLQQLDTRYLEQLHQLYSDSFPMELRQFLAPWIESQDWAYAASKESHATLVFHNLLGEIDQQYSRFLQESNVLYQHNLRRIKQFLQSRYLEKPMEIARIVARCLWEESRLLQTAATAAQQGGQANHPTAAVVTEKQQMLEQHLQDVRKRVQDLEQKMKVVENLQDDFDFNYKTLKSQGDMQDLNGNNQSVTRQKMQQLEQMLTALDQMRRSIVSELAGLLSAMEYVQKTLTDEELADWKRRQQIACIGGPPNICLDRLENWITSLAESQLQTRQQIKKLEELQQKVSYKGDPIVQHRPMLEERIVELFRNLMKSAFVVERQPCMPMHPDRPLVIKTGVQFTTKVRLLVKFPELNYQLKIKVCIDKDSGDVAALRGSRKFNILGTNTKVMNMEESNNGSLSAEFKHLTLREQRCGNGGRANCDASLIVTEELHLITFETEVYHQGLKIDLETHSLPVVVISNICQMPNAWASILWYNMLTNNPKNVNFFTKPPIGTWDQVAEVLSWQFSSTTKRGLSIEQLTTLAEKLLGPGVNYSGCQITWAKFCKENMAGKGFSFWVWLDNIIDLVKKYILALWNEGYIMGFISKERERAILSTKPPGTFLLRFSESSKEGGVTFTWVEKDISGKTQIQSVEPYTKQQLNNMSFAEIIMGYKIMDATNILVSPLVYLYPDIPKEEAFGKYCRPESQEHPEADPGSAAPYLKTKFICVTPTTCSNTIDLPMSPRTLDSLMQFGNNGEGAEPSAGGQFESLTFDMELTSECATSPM
Sequence of STAT3 SH2 domain (P40763 580-670 limits assumed): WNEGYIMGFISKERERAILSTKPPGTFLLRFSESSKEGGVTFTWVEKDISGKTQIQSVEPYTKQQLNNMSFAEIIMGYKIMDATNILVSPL

Compound | IC50 (HCC827) | IC50 (Huh7) | Kd (STAT3 protein) | IC50 (Capan-2; [2]) | IC50 (MKN45) | mortality in the mouse model ([1]; 25 mg/kg) | mortality in the mouse model ([1]; listed as IACS-101759, 25 mg/kg) | Kd (STAT3 SH2 domain) | IC50 (Capan-2; Capan-2, FIG. 5B, read-out: IC50, inhibition of proliferation of pancreatic cancer cells)
Cn1c(C(=O)N2CCN(Cc3ccccc3OCC(F)(F)F)CC2)cc2ccc(Oc3cnc(-c4nc(-c5ccc(C(F)(F)F)cc5)no4)cn3)cc21 [Example 33, (1-methyl-6-((5-(3-(4-(trifluoromethyl)phenyl)-1,2,4-oxadiazol-5-yl)pyrazin-2-yl)oxy)-1H-indol-2-yl)(4-(2-(2,2,2-trifluoroethoxy)benzyl)piperazin-1-yl)methanone] | < 1000 nM | < 1000 nM | < 0.1 µM | < 1000 nM | < 1000 nM |  |  |  | 
CN1CCN(C(=O)c2cc3ccc(Oc4cnc(-c5nc(-c6ccc(C(F)(F)F)cc6)no5)cn4)cc3n2C)CC1 [Example 34, (1-methyl-6-((5-(3-(4-(trifluoromethyl)phenyl)-1,2,4-oxadiazol-5-yl)pyrazin-2-yl)oxy)-1H-indol-2-yl)(4-methylpiperazin-1-yl)methanone] | < 1000 nM | < 1000 nM | < 0.1 µM | < 1000 nM | < 1000 nM |  |  |  | 
CCN1CCN(C(=O)c2cc3ccc(Oc4cnc(-c5nc(-c6ccc(C(F)(F)F)cc6)no5)cn4)cc3n2C)CC1 [Example 35, (4-ethylpiperazin-1-yl)(1-methyl-6-((5-(3-(4-(trifluoromethyl)phenyl)-1,2,4-oxadiazol-5-yl)pyrazin-2-yl)oxy)-1H-indol-2-yl)methanone] | < 1000 nM | < 1000 nM | < 0.1 µM | < 1000 nM | < 1000 nM |  |  |  | 
CCCN1CCN(C(=O)c2cc3ccc(Oc4cnc(-c5nc(-c6ccc(C(F)(F)F)cc6)no5)cn4)cc3n2C)CC1 [Example 36] | < 1000 nM | < 1000 nM | < 0.1 µM | < 1000 nM | < 1000 nM |  |  |  | 
COC(=O)CN1CCN(C(=O)c2cc3ccc(Oc4cnc(-c5nc(-c6ccc(C(F)(F)F)cc6)no5)cn4)cc3n2C)CC1 [Example 37, Methyl 2-(4-(1-methyl-6-((5-(3-(4-(trifluoromethyl)phenyl)-1,2,4-oxadiazol-5-yl)pyrazin-2-yl)oxy)-1H-indol-2-carbonyl)piperazin-1-yl)acetate] | < 1000 nM | < 1000 nM | < 0.1 µM | < 1000 nM | < 1000 nM |  |  |  | 
Cn1c(C(=O)N2CCN(C(=O)CCl)CC2)cc2ccc(Oc3cnc(-c4nc(-c5ccc(C(F)(F)F)cc5)no4)cn3)cc21 [Example 38, 2-chloro-1-(4-(1-methyl-6-((5-(3-(4-(trifluoromethyl)phenyl)-1,2,4-oxadiazol-5-yl)pyrazin-2-yl)oxy)-1H-indol-2-carbonyl)piperazin-1-yl)ethanone] | < 1000 nM | < 1000 nM | < 0.1 µM | < 1000 nM | < 1000 nM |  |  |  | 
Cn1c(C(=O)N2CCN(C(=O)c3ccc(C(F)(F)F)cc3)CC2)cc2ccc(Oc3cnc(-c4nc(-c5ccc(C(F)(F)F)cc5)no4)cn3)cc21 [Example 39] | < 1000 nM | < 1000 nM | < 0.1 µM | < 1000 nM | < 1000 nM |  |  |  | 
Cc1nc(-c2nc(-c3ccc(OC(F)(F)F)cc3)no2)nn1Cc1cccc(N2CCC(S(C)(=O)=O)CC2)c1 [IACS-010759, reference compound] |  |  |  |  |  | all mice in the administered group died | all mice died | 2.78 µM | 2.7 nM
